Counter-ions that a name gives are not always drawn.
Also: key: +: not sensitive; −: sensitive.

This test relates to biocontrol strain ST15. Format: cell-based, Bacillus altitudinis.
Regarding `[Cl-].[Na+]` [1% NaCl, NaCl], the “chemical sensitivity of strain ST15” value is “+”.

Regarding `CC(O)C(=O)[O-].[Na+]` (centres unmarked) [1% sodium lactate, sodium lactate], the “chemical sensitivity of strain ST15” value is “+”.

In the case of `C[C@H]1[C@H](NC(=O)/C(=N\OC(C)(C)C(=O)O)c2csc(N)n2)C(=O)N1S(=O)(=O)O` [Aztreonam], the “chemical sensitivity of strain ST15” value is given as “+”.

For the molecule `N[C@H](CO)C(=O)O` [D-serine], the “chemical sensitivity of strain ST15” value was “−”.

For `O=[Te]([O-])[O-].[K+].[K+]` [Dipotassium trioxotellurate], the “chemical sensitivity of strain ST15” value is given as “+”.

In the case of `CC(=O)O[C@H]1C[C@@]2(C)[C@@H](C[C@@H](O)[C@H]3[C@@]4(C)CC[C@@H](O)[C@@H](C)[C@@H]4CC[C@@]32C)/C1=C(\CCC=C(C)C)C(=O)O` [Fusidic acid], the “chemical sensitivity of strain ST15” value was “−”.

In the case of `N=C(N)N` [Guanidine hydrochloride], the “chemical sensitivity of strain ST15” value is “+”.

Take `CCC[C@@H]1C[C@@H](C(=O)N[C@@H]([C@H]2O[C@H](SC)[C@H](O)[C@@H](O)[C@H]2O)[C@@H](C)O)N(C)C1` [Lincomycin]: the “chemical sensitivity of strain ST15” value is recorded as “+”.

For `[Cl-].[Li+]` [Lithium chloride], the “chemical sensitivity of strain ST15” value is listed as “+”.

As for `CCn1cc(C(=O)O)c(=O)c2ccc(C)nc21` [Nalidixic acid], the “chemical sensitivity of strain ST15” value is recorded as “+”.

With `CO[C@H]1/C=C/O[C@@]2(C)Oc3c(C)c([O-])c4c(O)c(cc(O)c4c3C2=O)NC(=O)/C(C)=C\C=C\[C@H](C)[C@H](O)[C@@H](C)[C@@H](O)[C@@H](C)[C@H](OC(C)=O)[C@@H]1C.[Na+]` [Rifamycin SV], the “chemical sensitivity of strain ST15” value was “−”.

In the case of `CCCC(=O)[O-].[Na+]` [Sodium butyrate], the “chemical sensitivity of strain ST15” value is “+”.

Consider `CCCCCCCCCCCCCCOS(=O)(=O)[O-].[Na+]` [Sodium tetradecyl sulfate], for which the “chemical sensitivity of strain ST15” value is “−”.

Consider `COc1cc(-c2ccc(-n3nc(-c4ccccc4)n[n+]3-c3ccccc3)c(OC)c2)ccc1-n1nc(-c2ccccc2)n[n+]1-c1ccccc1.[Cl-].[Cl-]` [Tetrazolium blue], for which the “chemical sensitivity of strain ST15” value is given as “−”.

Consider `c1ccc(-c2nn(-c3ccccc3)[n+](-c3cccc4ccccc34)n2)cc1` [Tetrazolium violet], for which the “chemical sensitivity of strain ST15” value is listed as “−”.

On to `CO[C@H]1C[C@H](O[C@H]2[C@H](C)[C@@H](O[C@@H]3O[C@H](C)C[C@H](N(C)C)[C@H]3OC(C)=O)[C@@H](C)C[C@@]3(CO3)C(=O)[C@H](C)[C@@H](OC(C)=O)[C@@H](C)[C@@H](C)OC(=O)[C@@H]2C)O[C@@H](C)[C@@H]1OC(C)=O` [Troleandomycin], for which the “chemical sensitivity of strain ST15” value is given as “−”.

On to `CN[C@H](CC(C)C)C(=O)N[C@H]1C(=O)N[C@@H](CC(N)=O)C(=O)N[C@H]2C(=O)N[C@H]3C(=O)N[C@H](C(=O)N[C@H](C(=O)O)c4cc(O)cc(O)c4-c4cc3ccc4O)[C@H](O)c3ccc(c(Cl)c3)Oc3cc2cc(c3O[C@@H]2O[C@H](CO)[C@@H](O)[C@H](O)[C@H]2O[C@H]2C[C@](C)(N)[C@H](O)[C@H](C)O2)Oc2ccc(cc2Cl)[C@H]1O` [Vancomycin], for which the “chemical sensitivity of strain ST15” value is “−”.

Source of the values: patent US20230059898A1 (priority 2020, published 2023).
